Laboratory results from patent US12390440B2, “Immunomodulating trifluoromethyl-aminal azalides” (Zoetis Services LLC, priority 2020, dated 2025).
Values after ≈ are worked out from the molar mass of the structure shown. Read-outs that look alike come from different tables or passages of the source.

How the values were obtained:
E. coli = test: MIC, E. coli; conditions: Escherichia coli
M. haemolytica = test: MIC, M. haemolytica; conditions: for MIC: Mannheimia haemolytica
IL-1β = test: Bovine whole blood assay, IL-1β; assay type: cell-based; conditions: overstimulation of IL-1β, perceived cellular toxicity concentration;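 also: compound concentration at which rising IL-1β release signals cytotoxicity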
Experimental: (§1) (protected from light) for 30 minutes.

P. multocida [1] = test: MIC, P. multocida; conditions: for MIC: Pasteurella multocida
P. multocida 46572 = test: In vivo mouse lung infection challenge model (murine efficacy); conditions: for % Survival: 20 mg/kg subcutaneous, harmonized survival relative to vehicle and M9 controls, study ended Day 10
Experimental: The challenge organism was P. multocida 46572. Target challenge concentration was 5×10^2 CFU/mouse. Isolated colonies from overnight growth (37° C. with 5% CO2) on trypticase soy agar (TSA II) blood plates were transferred to room temperature Brain Heart Infusion Broth (BHIB). The broth culture was incubated 3.5-4 hours to approximately mid-log phase of growth, as measured by forward light scatter at 600 nm (OD600, 0.200). The culture was centrifuged to collect the bacterial pellet. The pellet was re-suspended in BHIB and adjusted to provide an approximate concentration of 2.7 log^10 colony forming units (CFU) in 0.04 mL at the highest concentration. The challenge inoculum concentration was confirmed by serial dilutions of the inoculum for CFU enumeration. On Day −5, CD-1 female mice were received. Mice were given standard rodent diet and water ad libitum. On Day 0, bacterial inoculum (0.04 mL) was administered to each mouse (n=36) intranasally. Compounds of the invention were dosed at 20 mg/kg (0.1 mL) in a buffered (˜pH 5.4) propylene glycol, monothioglycerol and water solution by subcutaneous injection. Animals were observed from Days 1-10. The study was terminated on Day 10. In addition, some treatment groups were sampled at 6, 24, and 48 hours post bacterial challenge for RNA sequence analysis of lung tissue.
The murine efficacy model (P. multocida challenge) was optimized, and the treatment group size was powered to be able to observe statistically significant improvement of survival to expected ranges for immunomodulatory compounds. The experimental design was a randomized complete block design. Mice were individually identified and treatment groups comingled within a cage, with every treatment group equally represented across cages. Mortality was the primary variable. Mortality data was analyzed using a generalized mixed model with fixed effect of treatment and random effect of block. Survival time was also analyzed using the SAS PHREG (survival analysis) procedure to examine whether there were significant differences between treatment groups and the control group. Numerous compounds of the invention and M9 (positive control) were tested in this model at a dose of 20 mg/kg (Table 3). Typical percent survival for no treatment control is in the range of 0-20% based on study to study variation in challenge inoculum and rate of infection. […] Mouse survival for M9 was about 90-100%, further supporting its residual antibacterial properties against the bacterial strain. Harmonized survival accounts for % survival relative to vehicle (“−” control) and M9 (“+” control)) survival data (Table 3).

[2] = test system: BRD pathogens, M. haemolytica and P. multocida; test: MIC screening panel, BRD pathogens (CLSI broth micro-dilution); conditions: read-out: MIC flag (*) at Ex #
TNF-α = test: Bovine whole blood assay, LPS-induced TNF-α; assay type: cell-based; conditions: Bos taurus, fresh whole bovine blood, LPS 1 μg/mL
Experimental: as §1

S. aureus = test: MIC, S. aureus; conditions: Staphylococcus aureus
IL-6 = test: Bovine whole blood assay, IL-6; assay type: cell-based; conditions: Bos taurus, fresh whole bovine blood, LPS 1 μg/mL
Experimental: as §1

P. multocida [3] = test: Murine P. multocida intranasal challenge study, survival; assay type: in vivo; conditions: 5×10^3 CFU/mouse
Experimental: In one murine P. multocida intranasal challenge study, mice were administered tulathromycin (16 mg/kg; T02), M9 (32 mg/kg; T03), or ceftiofur (9 mg/kg; T04) by subcutaneous injection 18 hours after bacterial challenge (5×10^3 CFU/mouse) for lung tissue RNA sequence analysis. Survival at Day 7 was about 80%, 50%, and 90% for T02, T03, and T04, respectively, compared to placebo at 0%. Differential gene expression from total lung tissue RNA sequence analysis indicated at least 226 unique genes were up or down regulated (with significance) for T03. Output from ingenuity pathway analysis of these unique genes predicted major upstream regulators of the involved pathways. Data was analyzed based on the number of genes being modulated in the same direction that were associated with a given upstream regulator. An activation z-score of 2 or greater is considered significant and the direction change is indicated by + (activated) or − (inhibited). The top 5 pathways included: IL-9 signaling, glucocorticoid receptor signaling, prolactin signaling, JAK STAT signaling, and IL-17 signaling. The top 6 upstream regulators (activation z-score) included: lipopolysaccharide (−6.725), TNF (−4.669), IFNγ (−5.759), IL-1ß (−5.947), STAT1 (−2.787), and poly rI:rC-RNA (−5.289). Even though this study was run in the murine model, the top upstream regulators identified as being modulated by M9 include an almost ubiquitous overlap with the pathways identified in the natural disease study as being key mediators in BRD, and therefore is modulating highly relevant pathways in BRD pathobiology.

H. somni = test: MIC, H. somni; conditions: H. somni strains
[4] = test system: M. haemolytica (strain: OSU-012103-BHI); test: Bovine M. haemolytica intratracheal lung challenge model; conditions: bovine M. haemolytica challenge
[5] = M. haemolytica 46571, bovine efficacy challenge strain
[6] = P. multocida 46572, murine efficacy challenge strain

Which MIC (E. coli; E. coli 25922) does the source give for CCCNC[C@]1(O)[C@H](C)O[C@@H](O[C@H]2[C@H](C)[C@@H](O[C@@H]3O[C@H](C)C[C@H]4[C@H]3OC(C(F)(F)F)N4C)[C@](C)(O)C[C@@H](C)CN[C@H](C)[C@@H](O)[C@](C)(O)[C@@H](CC)OC(=O)[C@@H]2C)C[C@@]1(C)OC (stereo partly drawn) [Example A-1, (2R,3S,4R,5R,8R,10R,11R,12S,13S,14R)-11-(((3aR,4S,6R,7aS)-1,6-dimethyl-2-(trifluoromethyl)hexahydro-2H-pyrano[4,3-d]oxazol-4-yl)oxy)-2-ethyl-13-(((2R,4R,5S,6S)-5-((propylamino)methyl)-5-hydroxy-4-methoxy-4,6-dimethyltetrahydro-2H-pyran-2-yl)oxy)-3,4,10-trihydroxy-3,5,8,10,12,14-hexamethyl-1-oxa-6-azacyclopentadecan-15-one] here?
The MIC was > 64 µg/mL.

And the MIC (E. coli; E. coli W3110)?
The MIC was > 64 µg/mL.

And the MIC (M. haemolytica; M. haemolytica 12726)?
The MIC was > 64 µg/mL.

And the MIC (M. haemolytica; M. haemolytica 33396)?
The MIC was > 64 µg/mL.

What about the MIC (M. haemolytica; [5]) of the same molecule?
The MIC was > 64 µg/mL.

What about the “IL-1β OS of LPS” value (IL-1β) of the same molecule?
The value was >500 µM.

What about the MIC (P. multocida [1]; P. multocida 43137) of the same molecule?
The MIC was > 64 µg/mL.

What about the MIC (P. multocida [1]; [6]) of the same molecule?
The MIC was 64 µg/mL (≈ 73.4 µM).

And the MIC (P. multocida [1]; read-out: MIC flag (*) at Ex. #, P. multocida challenge strain (46572K), Table 3)?
The MIC was < 64 µg/mL.

What about the “% Survival” value (P. multocida 46572) of the same molecule?
The value was 43%.

And the MIC [2]?
The MIC was < 64 µg/mL.

What about the IC50 (TNF-α) of the same molecule?
Its IC50 is < 3 µM.

What about the MIC (S. aureus) of the same molecule?
The MIC was > 64 µg/mL.

How did the “% Survival” value (P. multocida 46572) turn out when CC[C@H]1OC(=O)[C@H](C)[C@@H](O[C@H]2C[C@@](C)(OC)[C@](O)(CNCCOC)[C@H](C)O2)[C@H](C)[C@@H](O[C@@H]2O[C@H](C)C[C@H]3[C@H]2OC(C(F)(F)F)N3C)[C@](C)(O)C[C@@H](C)CN[C@H](C)[C@@H](O)[C@]1(C)O (stereo partly drawn) [Example A-2, (2R,3S,4R,5R,8R,10R,11R,12S,13S,14R)-11-(((3aR,4S,6R,7aS)-1,6-dimethyl-2-(trifluoromethyl)hexahydro-2H-pyrano[4,3-d]oxazol-4-yl)oxy)-2-ethyl-3,4,10-trihydroxy-13-(((2R,4R,5S,6S)-5-hydroxy-4-methoxy-5-(((2-methoxyethyl)amino)methyl)-4,6-dimethyltetrahydro-2H-pyran-2-yl)oxy)-3,5,8,10,12,14-hexamethyl-1-oxa-6-azacyclopentadecan-15-one] was run?
Its value is 18%.

What does the source list for CC[C@H]1OC(=O)[C@H](C)[C@@H](O[C@H]2C[C@@](C)(OC)[C@](O)(CNCCO)[C@H](C)O2)[C@H](C)[C@@H](O[C@@H]2O[C@H](C)C[C@H]3[C@H]2OC(C(F)(F)F)N3C)[C@](C)(O)C[C@@H](C)CN[C@H](C)[C@@H](O)[C@]1(C)O (stereo partly drawn) [Example A-3, (2R,3S,4R,5R,8R,10R,11R,12S,13S,14R)-11-(((3aR,4S,6R,7aS)-1,6-dimethyl-2-(trifluoromethyl)hexahydro-2H-pyrano[4,3-d]oxazol-4-yl)oxy)-2-ethyl-3,4,10-trihydroxy-13-(((2R,4R,5S,6S)-5-hydroxy-5-(((2-hydroxyethyl)amino)methyl)-4-methoxy-4,6-dimethyltetrahydro-2H-pyran-2-yl)oxy)-3,5,8,10,12,14-hexamethyl-1-oxa-6-azacyclopentadecan-15-one]?
MIC (E. coli; E. coli 25922): > 64 µg/mL; MIC (E. coli; E. coli W3110): > 64 µg/mL; MIC (M. haemolytica; M. haemolytica 12726): > 64 µg/mL; MIC (M. haemolytica; M. haemolytica 33396): > 64 µg/mL; MIC (M. haemolytica; [5]): > 64 µg/mL; IL-1β OS of LPS (IL-1β): 32 µM; MIC (P. multocida [1]; P. multocida 43137): > 64 µg/mL; MIC (P. multocida [1]; [6]): > 64 µg/mL; % Survival (P. multocida 46572): 11%; IC50 (IL-6): 40 µM; IC50 (TNF-α): 20 µM; MIC (S. aureus): > 64 µg/mL

Which “IL-1β OS of LPS” value (IL-1β) does the source give for CC[C@H]1OC(=O)[C@H](C)[C@@H](O[C@H]2C[C@@](C)(OC)[C@](O)(CN3CCN(C)CC3)[C@H](C)O2)[C@H](C)[C@@H](O[C@@H]2O[C@H](C)C[C@H]3[C@H]2OC(C(F)(F)F)N3C)[C@](C)(O)C[C@@H](C)CN[C@H](C)[C@@H](O)[C@]1(C)O (stereo partly drawn) [Example B-2, (2R,3S,4R,5R,8R,10R,11R,12S,13S,14R)-11-(((3aR,4S,6R,7aS)-1,6-dimethyl-2-(trifluoromethyl)hexahydro-2H-pyrano[4,3-d]oxazol-4-yl)oxy)-2-ethyl-3,4,10-trihydroxy-13-(((2R,4R,5S,6S)-5-hydroxy-4-methoxy-4,6-dimethyl-5-((4-methylpiperazin-1-yl)methyl)tetrahydro-2H-pyran-2-yl)oxy)-3,5,8,10,12,14-hexamethyl-1-oxa-6-azacyclopentadecan-15-one] here?
Its value is 5 µM.

And the “% Survival” value (P. multocida 46572)?
Its value is 47%.

What about the “clinical efficacy in P. multocida infection in mice” value (P. multocida 46572; mouse, in vivo) of the same molecule?
Its value is “clinically efficacious”.

And the IC50 (TNF-α)?
The IC50 was 5 µM.

Which “Survival at Day 7” value (P. multocida [3]; 9 mg/kg (T04) subcutaneous 18 hours after challenge) does the source give for CO/N=C(\C(=O)N[C@@H]1C(=O)N2C(C(=O)O)=C(CSC(=O)c3ccco3)CS[C@H]12)c1csc(N)n1 [ceftiofur] here?
The value was ~90%.

For CCN1CCN(c2cc3c(cc2F)c(=O)c(C(=O)O)cn3C2CC2)CC1 [enrofloxacin], which “MIC values, range over strains” value (H. somni) is on record?
Its value is <0.06 to 1 µg/mL.

With CS(=O)(=O)c1ccc([C@@H](O)[C@@H](CF)NC(=O)C(Cl)Cl)cc1 [florfenicol] as the molecule, how does the “MIC values, range over strains” value (H. somni) read?
The value was 0.12 to 2 µg/mL.

How did the “MIC values, range over strains” value (M. haemolytica; the same M. haemolytica strains of the screening panel) turn out when CCCN1C[C@H](C)[C@@H](O)[C@](C)(O)[C@@H](CC)OC(=O)[C@H](C)[C@@H](O[C@H]2C[C@@](C)(OC)[C@@H](O)[C@H](C)O2)[C@H](C)[C@@H](O[C@@H]2O[C@H](C)C[C@H](N(C)C)[C@H]2O)[C@](C)(O)C[C@H]1C [gamithromycin, reference compound] was run?
The value was 0.5 to 1 µg/mL.

What about the “MIC values, range over strains” value (P. multocida [1]; the same P. multocida strains of the screening panel) of the same molecule?
The value was 1 to 2 µg/mL.

And the “MIC values, range over strains” value (H. somni)?
The value was 0.25 to 8 µg/mL.

How did the IL-6 levels [4] turn out when CCCNC[C@]1(O)[C@H](C)O[C@@H](O[C@H]2[C@H](C)[C@@H](O[C@@H]3O[C@H](C)C[C@H](N(C)C)[C@H]3O)[C@](C)(O)C[C@@H](C)CN[C@H](C)[C@@H](O)[C@](C)(O)[C@@H](CC)OC(=O)[C@@H]2C)C[C@@]1(C)OC [tulathromycin, (2R,3S,4R,5R,8R,10R,11R,12S,13S,14R)-11-(((2S,3R,4S,6R)-4-(dimethylamino)-3-hydroxy-6-methyltetrahydro-2H-pyran-2-yl)oxy)-2-ethyl-3,4,10-trihydroxy-13-(((2R,4R,5S,6S)-5-hydroxy-4-methoxy-4,6-dimethyl-5-((propylamino)methyl)tetrahydro-2H-pyran-2-yl)oxy)-3,5,8,10,12,14-hexamethyl-1-oxa-6-azacyclopentadecan-15-one] was run?
Its IL-6 levels is “significantly reduced”.

What about the “Survival at Day 7” value (P. multocida [3]; 16 mg/kg (T02) subcutaneous 18 hours after challenge) of the same molecule?
Its value is “about 80%”.

And the MIC (S. aureus)?
Its MIC is 8 µg/mL (≈ 9.92 µM).
